Laboratory results reported in US6794386B2, “β-amino acid compounds as integrin antagonists” (Bayer Aktiengesellschaft, priority 2000, dated 2004).
Read-outs that look alike come from different tables or passages of the source.

Biological target: T1, VLA-4 (Homo sapiens, UniProt P05556+P13612)
T1 construct: host or cells: Jurkat clone E6-1
Assay: Adhesion of Jurkat cells to immobilized VCAM-1 (domains 1-3)
Type: cell-based
Parameters: scale not given here
Conditions: adhesion of CFSE-labeled Jurkat cells to recombinant human VCAM-1 (domains 1-3) coated plates, compounds as yielded by solid phase synthesis, purity about 40-90%
Protocol: In Vitro Assay: Adhesion of Jurkat Cells to Immobilized VCAM-1 (Domains 1-3).
Preparation of Fluorescence Labeled Jurkat Cells:
Jurkat cells (American Type Culture Collection, Clone E6-1, ATCC TIB-152) were cultured in RPMI 1640 medium (Nikken Bio Medical Laboratory, CM1101) supplemented with 10% fetal bovine serum (Hyclone, A-1119-L), 100 U/ml penicilin (Gibco BRL, 15140-122) and 100 μg/ml streptomycin (Gibco BRL, 15140-122) in a humidified incubator at 37° C. with 5% CO2.
Jurkat cells were incubated with phosphate balanced solution (PBS, Nissui, 05913) containing 25 μM of 5(-and-6)-carboxyfluorescein diacetate, succinimidyle ester (CFSE, Dojindo Laboratories, 345-06441) for 20 min at room temperature while gently swirling every 5 min. After centrifugation at 1000 rpm for 5 min, the cell pellet was resuspended with adhesion assay buffer at a cell density of 2×10^6 cells/ml. The adhesion assay buffer was composed of 24 mM Tris-HCl (pH 7.4), 137 mM NaCl, 27 mM KCl, 4 mM glucose, 0.1% bovine serum albumin (BSA, Sigma, A9647) and 2 mM MnCl2.
Preparation of VCAM-1 (Extracellular Domains 1-3):
Complementary DNA (cDNA) encoding 7-domain form of VCAM-1 (GenBank accession #M60335) was obtained using Rapid-Screen™ cDNA library panels (OriGene Technologies, Inc) at Takara Gene Analysis Center (Shiga, Japan). The primers used were 5′-CCAAGGCAGAGTACGCAAAC-3′ (sence) and 5′-TGGCAGGTATTATTAAGGAG-3′ (antisense). PCR amplification of the 3-domain VCAM-1 cDNA was perform using Pfu DNA polymerase (Stratagene) with the following sets of primers: (U-VCAMd1-3) 5′-CCATATGGTACCTGATCAATTTAAAATCGAGACCACCCCAGAA-3′; (L-VCAMd1-3) 5′-CCATATAGCAATCCTAGGTCCAGGGGAGATCTCAACAGTAAA-3′. PCR cycle was 94° C. for 45 sec, 55° C. for 45 sec, 72° C. for 2 min, repeating 15 cycles. After the purification of the PCR product, the fragment was digested with KpnI-AvrII. The digested fragment was ligated into pBluescript IISK(−) (Strategene), which was linealized by digesting with KpnI-XhoI. The ligation was followed by transformation to a Dam/Dcm methylase-free E. coli strain SCS110 (Strategene) to create the donor plasmid pH7. To direct VCAM-1 molecule into the insect cell secretory pathway, the VCAM-1 coding sequence was fused to signal peptide sequence of honeybee melittin. The resulting melittin-VCAM fusion was placed in correct orientation to the baculoviris polyhedrin promoter. Baculovirus transfer vector containing first 3-domain form VCAM-1 (pH10) was constructed by ligation of 0.9 kb fragment from AvrII/Klenow/BclI digests of pH7 into SalI/Klenow/BamHI digests of pMelBacB (Invitrogen). Recombinant baculovirus was generated by using Bac-N-Blue™ Transfection kit (Invitrogen) according to the manufacture's instruction. The recombinant virus was amplified by infection to High-Five™ insect cells for 5-6 days, and virus titer was determined by plaque assay.
High-Five™ insect cells were pelleted in a 225 ml conical tube by centrifugation at 1000 rpm for 5 min After discarding the supernatant, the pellet was resuspended in 1.5×10^9 pfu (MOI=5) of high-titer virus solution, followed by incubation for 1.5 hours at room temperature. The cells were pelleted again and washed once in fresh Express Five™ serum free medium. The cells were pelleted again and finally, resuspended in 200 ml of fresh Express Five™ medium, transferred to a 1,000 ml shaker flask, and incubated in a shaker at 27° C., 130 rpm, for 48 hours before the culture supernatant was collected. The purification of 3-domain form of VCAM-1 from the culture supernatant was performed by one-step anion exchange chromatography. Protein concentration was determined by using Coomassie protein assay reagent (Pierce) according to the manufacture's instruction.
Preparation of Microtiter Plates:
Recombinant human VCAM-1 (extracellular domains 1-3) was dissolved at 0.5 μg/ml in PBS. […]

T1 sequence (P13612 34-1032): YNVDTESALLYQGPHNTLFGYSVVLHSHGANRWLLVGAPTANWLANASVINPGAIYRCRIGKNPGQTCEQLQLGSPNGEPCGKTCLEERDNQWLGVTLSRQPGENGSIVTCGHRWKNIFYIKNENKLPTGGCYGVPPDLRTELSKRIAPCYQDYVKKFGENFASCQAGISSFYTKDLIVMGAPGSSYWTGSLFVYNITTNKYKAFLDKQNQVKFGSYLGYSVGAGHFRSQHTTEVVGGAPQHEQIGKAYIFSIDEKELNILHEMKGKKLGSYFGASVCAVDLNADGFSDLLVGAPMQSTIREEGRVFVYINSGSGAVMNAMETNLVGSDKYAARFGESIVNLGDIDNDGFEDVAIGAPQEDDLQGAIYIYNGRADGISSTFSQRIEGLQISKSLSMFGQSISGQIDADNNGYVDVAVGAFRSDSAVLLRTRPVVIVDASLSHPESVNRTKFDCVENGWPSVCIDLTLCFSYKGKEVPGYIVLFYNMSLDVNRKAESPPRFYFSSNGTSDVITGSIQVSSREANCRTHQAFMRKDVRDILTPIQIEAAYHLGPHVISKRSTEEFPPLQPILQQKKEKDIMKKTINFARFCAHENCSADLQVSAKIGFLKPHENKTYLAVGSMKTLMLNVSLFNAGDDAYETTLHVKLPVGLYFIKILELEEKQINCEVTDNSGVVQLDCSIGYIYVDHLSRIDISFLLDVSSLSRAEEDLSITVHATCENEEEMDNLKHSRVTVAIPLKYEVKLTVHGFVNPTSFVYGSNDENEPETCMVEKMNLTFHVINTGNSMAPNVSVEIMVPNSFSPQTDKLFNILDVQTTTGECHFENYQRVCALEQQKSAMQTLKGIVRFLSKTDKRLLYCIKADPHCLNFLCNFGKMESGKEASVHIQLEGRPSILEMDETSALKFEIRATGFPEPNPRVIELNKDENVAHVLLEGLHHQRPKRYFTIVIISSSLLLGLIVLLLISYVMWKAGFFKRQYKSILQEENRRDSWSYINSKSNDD
T1 sequence (P05556 21-798): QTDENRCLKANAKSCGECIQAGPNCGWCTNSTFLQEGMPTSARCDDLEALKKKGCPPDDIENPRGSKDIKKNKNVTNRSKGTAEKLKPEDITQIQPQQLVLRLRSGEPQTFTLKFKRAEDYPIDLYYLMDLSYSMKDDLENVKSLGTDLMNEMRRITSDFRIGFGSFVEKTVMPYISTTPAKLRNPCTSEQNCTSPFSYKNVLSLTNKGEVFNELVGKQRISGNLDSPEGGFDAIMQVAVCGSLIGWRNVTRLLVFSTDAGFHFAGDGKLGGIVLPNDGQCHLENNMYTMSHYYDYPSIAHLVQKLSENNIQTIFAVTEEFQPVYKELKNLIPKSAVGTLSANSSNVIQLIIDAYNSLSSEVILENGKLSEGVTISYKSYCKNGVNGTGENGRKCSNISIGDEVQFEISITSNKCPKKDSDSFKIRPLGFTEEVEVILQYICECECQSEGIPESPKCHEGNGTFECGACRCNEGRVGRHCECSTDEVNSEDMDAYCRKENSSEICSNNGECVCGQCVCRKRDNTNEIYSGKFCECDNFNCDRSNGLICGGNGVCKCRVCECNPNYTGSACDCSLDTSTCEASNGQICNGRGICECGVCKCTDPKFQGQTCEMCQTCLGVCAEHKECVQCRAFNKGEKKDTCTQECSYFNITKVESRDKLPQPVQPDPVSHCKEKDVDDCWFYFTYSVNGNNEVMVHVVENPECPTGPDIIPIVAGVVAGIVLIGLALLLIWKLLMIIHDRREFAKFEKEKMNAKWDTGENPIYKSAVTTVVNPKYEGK

Structure (SMILES)	IC50	IC50 (read-out: IC50) [nM]
CC1(C)C2CCC1(CS(=O)(=O)N1CCCC(C(=O)N[C@@H](Cc3ccc(-c4cc(Cl)ccc4Cl)cc3)C(=O)O)C1)C(=O)C2 (stereo partly shown) [Example 1.103]	C-D	
Cc1ccc(-c2ccc(C[C@H](NC(=O)C3CCCN(S(=O)(=O)c4ccccc4C(F)(F)F)C3)C(=O)O)cc2)cc1 (stereo partly shown) [Example 1.71]	C-D	
COC(=O)c1ccccc1S(=O)(=O)N1CCCC(C(=O)N[C@@H](Cc2ccc(-c3cc(Cl)ccc3Cl)cc2)C(=O)O)C1 (stereo partly shown) [Example 1.105]	C-D	
COc1ccc(Cl)cc1S(=O)(=O)N1CCCC(C(=O)N[C@@H](Cc2ccc(-c3ccc(C)cc3)cc2)C(=O)O)C1 (stereo partly shown) [Example 1.72]	C-D	
COC(=O)c1ccccc1S(=O)(=O)N1CCCC(C(=O)N[C@@H](Cc2ccc(-c3ccccc3C)cc2)C(=O)O)C1 (stereo partly shown) [Example 1.86]		2000 to 10000
CN(Cc1ccccc1)c1ncnc(N2CCCC(C(=O)N[C@@H](Cc3ccc(-c4ccc(Cl)c(Cl)c4)cc3)C(=O)O)C2)c1F (stereo partly shown) [Example 2.45]	C-D	
Cc1ccc(-c2ccc(C[C@H](NC(=O)C3CCCN(C(=O)Oc4c(C)cc(C)cc4C)C3)C(=O)O)cc2)cc1 (stereo partly shown) [Example 1.23]	C-D	
CC1(C)C2CCC1(CS(=O)(=O)N1CCCC(C(=O)N[C@@H](Cc3ccc(-c4ccccc4)cc3)C(=O)O)C1)C(=O)C2 (stereo partly shown) [Example 1.55]	C-D	
COc1ccc(S(=O)(=O)N2CCCC(C(=O)N[C@@H](Cc3ccc(-c4cc(Cl)ccc4Cl)cc3)C(=O)O)C2)cc1OC (stereo partly shown) [Example 1.108]	C-D	
Cc1cc(C)c(OC(=O)N2CCCC(C(=O)N[C@@H](Cc3ccc(-c4ccccc4C)cc3)C(=O)O)C2)c(C)c1 (stereo partly shown) [Example 1.38]	C-D	
COc1ccc(-c2ccc(C[C@H](NC(=O)C3CCCN(S(=O)(=O)c4cc(Cl)cc(Cl)c4)C3)C(=O)O)cc2)cc1 (stereo partly shown) [Example 1.83]	C-D	
COc1ccc(S(=O)(=O)N2CCCC(C(=O)N[C@@H](Cc3ccc(-c4ccc(C)cc4)cc3)C(=O)O)C2)cc1OC (stereo partly shown) [Example 1.70]	C-D	
O=C(N[C@@H](Cc1ccc(-c2ccc(Cl)cc2Cl)cc1)C(=O)O)C1CCCN(C(=O)OC2CCCC2)C1 (stereo partly shown) [Example 1.48]		2000 to 10000
Cc1cc(Cl)c(CC(=O)N2CCCC(C(=O)N[C@@H](Cc3ccc(-c4ccccc4C)cc3)C(=O)O)C2)c(Cl)c1 (stereo partly shown) [Example 1.35]	C-D	
COc1ccc(-c2ccc(C[C@H](NC(=O)C3CCCN(C(=O)c4ccccc4OC)C3)C(=O)O)cc2)cc1 (stereo partly shown) [Example 1.27]	C-D	
O=C(N[C@@H](Cc1ccc(-c2cc(Cl)ccc2Cl)cc1)C(=O)O)C1CCCN(S(=O)(=O)c2c(Cl)cccc2Cl)C1 (stereo partly shown) [Example 1.107]	C-D	
Cc1ccccc1-c1ccc(C[C@H](NC(=O)C2CCCN(S(=O)(=O)CC34CCC(CC3=O)C4(C)C)C2)C(=O)O)cc1 (stereo partly shown) [Example 1.84]	C-D	
COc1ccc(-c2ccc(C[C@H](NC(=O)C3CCCN(C(=O)OC4CCCC4)C3)C(=O)O)cc2)cc1 (stereo partly shown) [Example 1.29]	C-D	
Cc1ccc(-c2ccc(C[C@H](NC(=O)C3CCCN(c4ncnc(N5CCCCC5)c4F)C3)C(=O)O)cc2)cc1 (stereo partly shown) [Example 2.6]	C-D	
COc1ccc(Cl)cc1S(=O)(=O)N1CCCC(C(=O)N[C@@H](Cc2ccc(-c3cc(Cl)ccc3Cl)cc2)C(=O)O)C1 (stereo partly shown) [Example 1.110]	C-D	
Cc1ccc(-c2ccc(C[C@H](NC(=O)C3CCCN(c4ncnc(NC5Cc6ccccc6C5)c4F)C3)C(=O)O)cc2)cc1 (stereo partly shown) [Example 2.11]	C-D	
Cc1ccc(C(=O)N2CCCC(C(=O)N[C@@H](Cc3ccc(-c4ccc(Cl)cc4Cl)cc3)C(=O)O)C2)cc1 (stereo partly shown) [Example 1.42]	B-C	
O=C(N[C@@H](Cc1ccc(-c2cc(Cl)ccc2Cl)cc1)C(=O)O)C1CCCN(S(=O)(=O)c2ccccc2C(F)(F)F)C1 (stereo partly shown) [Example 1.109]	C-D	

Results, then the compound that gave them:

IC50	IC50 (read-out: IC50) [nM]	Structure (SMILES)
	≤ 500	O=C(N[C@@H](Cc1ccc(NC(=O)N2CCN(c3ccccc3)CC2)cc1)C(=O)O)C1CCCN(C(=O)c2ccccc2F)C1 (stereo partly shown) [Example 4.50]
	500 to 2000	CS(=O)(=O)N1CCCC(C(=O)N[C@@H](Cc2ccc(NC(=O)N3CCN(c4ccccc4)CC3)cc2)C(=O)O)C1 (stereo partly shown) [Example 4.37]
	≤ 500	CC(C)NC(=O)N1CCCC(C(=O)N[C@@H](Cc2ccc(NC(=O)N3CCOCC3)cc2)C(=O)O)C1 (stereo partly shown) [Example 4.52]
	500 to 2000	O=C(N[C@@H](Cc1ccc(NC(=O)N2CCOCC2)cc1)C(=O)O)C1CCCN(C(=O)Nc2ccc(-c3ccccc3)cc2)C1 (stereo partly shown) [Example 4.59]
	500 to 2000	CC1CCCCN1c1ncnc(N2CCCC(C(=O)N[C@@H](Cc3ccc(NC(=O)N4CCc5ccccc5C4)cc3)C(=O)O)C2)c1F (stereo partly shown) [Example 5.41]
	≤ 500	CN1CCN(C(=O)Nc2ccc(C[C@H](NC(=O)C3CCCN(c4ncnc(N)c4F)C3)C(=O)O)cc2)CC1 (stereo partly shown) [Example 5.34]
	500 to 2000	O=C(N[C@@H](Cc1ccc(NC(=O)N2CCc3ccccc3C2)cc1)C(=O)O)C1CCCN(c2ncnc(NCc3ccncc3)c2F)C1 (stereo partly shown) [Example 5.44]
	500 to 2000	O=C(N[C@@H](Cc1ccc(NC(=O)N2CCN(c3ccccc3)CC2)cc1)C(=O)O)C1CCCN(S(=O)(=O)Cc2ccccc2)C1 (stereo partly shown) [Example 4.47]
	2000 to 10000	O=C(Nc1ccc(C[C@H](NC(=O)C2CCCN(C(=O)Cc3ccccc3)C2)C(=O)O)cc1)NC1CCN(Cc2ccccc2)CC1 (stereo partly shown) [Example 4.26]
	500 to 2000	O=C(N[C@@H](Cc1ccc(NC(=O)N2CCOCC2)cc1)C(=O)O)C1CCCN(c2ncnc(NCc3ccccc3)c2F)C1 (stereo partly shown) [Example 5.8]
	≤ 500	COc1ccc(S(=O)(=O)N2CCCC(C(=O)N[C@@H](Cc3ccc(NC(=O)N4CCOCC4)cc3)C(=O)O)C2)cc1OC (stereo partly shown) [Example 4.34]
	500 to 2000	CN(c1ncnc(N2CCCC(C(=O)N[C@@H](Cc3ccc(NC(=O)N4CCOCC4)cc3)C(=O)O)C2)c1F)C1CCCCC1 (stereo partly shown) [Example 5.36]
	500 to 2000	O=C(N[C@@H](Cc1ccc(NC(=O)N2CCN(c3ccccc3)CC2)cc1)C(=O)O)C1CCCN(c2ncnc(NCCc3ccccn3)c2F)C1 (stereo partly shown) [Example 5.39]
	2000 to 10000	CN1CCN(C(=O)Nc2ccc(C[C@H](NC(=O)C3CCCN(c4ncnc(NC5CCCC5)c4F)C3)C(=O)O)cc2)CC1 (stereo partly shown) [Example 5.24]
	2000 to 10000	O=C(N[C@@H](Cc1ccc(NC(=O)N2CCN(c3ccccc3)CC2)cc1)C(=O)O)C1CCCN(c2ncnc(NCCc3ccccc3)c2F)C1 (stereo partly shown) [Example 5.26]
	500 to 2000	COc1ccccc1C(=O)N1CCCC(C(=O)N[C@@H](Cc2ccc(NC(=O)NCC(c3ccccc3)c3ccccc3)cc2)C(=O)O)C1 (stereo partly shown) [Example 4.15]
	2000 to 10000	O=C(N[C@@H](Cc1ccc(NC(=O)N2CCCCC2)cc1)C(=O)O)C1CCCN(C(=O)c2ccc(OC(F)(F)F)cc2)C1 (stereo partly shown) [Example 4.4]
	2000 to 10000	O=C(N[C@@H](Cc1ccc(NC(=O)N2CCOCC2)cc1)C(=O)O)C1CCCN(c2ncnc(N3CCN(c4ccccc4)CC3)c2F)C1 (stereo partly shown) [Example 5.12]
	500 to 2000	O=C(NCC(c1ccccc1)c1ccccc1)Nc1ccc(C[C@H](NC(=O)C2CCCN(C(=O)c3ccccc3F)C2)C(=O)O)cc1 (stereo partly shown) [Example 4.56]
	≤ 500	O=C(N[C@@H](Cc1ccc(NC(=O)N2CCc3ccccc3C2)cc1)C(=O)O)C1CCCN(S(=O)(=O)c2cccs2)C1 (stereo partly shown) [Example 4.33]
